Measurements taken from US20140243350A1, “USE OF SEROTONIN RECEPTOR AGONISTS FOR TREATMENT OF MOVEMENT DISORDERS” (CONTERA PHARMA APS, priority 2011, published 2014).
Where two headings read alike, the source gives them in different places.

How the values were obtained:
[1] = tested on: unilaterally 6-OHDA-lesioned rats; details: buspirone alone 0.5 mg/kg i.p.
Text: 6-OHDA (6-hydroxydopamine) is a neurotoxin that selectively kills dopaminergic and noradrenergic neurons and induces a reduction of dopamine levels in the brain. […] These are axial, limb and oral movements that occur only on the body side that is […] to the lesion.
In the mild cases: lateral flexion of the neck or torsional movements of the upper trunk towards the side contralateral to the lesion. With repeated injection of L-DOPA, this movement may develop into a pronounced and continuous dystonia-like axial torsion. […] In mild cases: hyperkinetic, jerky stepping movements of the forelimb contralateral to the lesion, or small circular movements of the forelimb to and from the snout.

LID model rats = details: buspirone alone 0.2 mg/kg s.c., 11 min before AIM test; FIG. 8A
[2] = tested on: patients treated with neuroleptics; details: open study, relative high doses; cited from earlier work
naïve rats = details: retigabine alone 10 mg/kg i.p.; for total move distance (locomotor activity) in open field test: FIG. 6; for total velocity (locomotor activity) in open field test: FIG. 7; for locomotor activity (moving distance and velocity) in open field test: FIGS. 6 and 7
Experimental: Species: 60 Sprague-Dawley male rats (180-220 g, bred in house, originally from SLAC Labortory Animal Co. Ltd) at 9-week of age.
Administration and dose regimen for the groups of animals (each comprising 10 rats):
Vehicle: 10% Tween 80, i.p., 30 min before test, n=10. Buspirone 1: Buspirone (From Sigma, Cat. No. B7148, Lot. No. 042K1763Z) 1 mg/kg, i.p. 30 min before test, n=10. Buspirone 2: Buspirone 2 mg/kg, i.p. 30 min before test, n=10.
Rats were put in open-field chambers (dimensions 40 cm×40 cm×40 cm) 30 minutes after dosing. After a 15 minutes habituation, locomotion were recorded and analyzed by Enthovision Video Tracking Software (Noldus Information Technology, Netherlands) for 60 minutes. All locomotor activities were done during dark phase and to eliminate olfactory cues, the arena was thoroughly cleaned with 70% v/v ethanol between each test.
Data statistics: The total locomotor activity is expressed as total moved distance (cm) and average velocity (cm/s) every 10 minutes during 60 minutes. The data were analyzed using One-Way ANOVA and the Tukey post-hoc test. The locomotor activity in six time point is expressed as moved distance (cm) and average velocity (cm/s) every 10 minutes. The data were analyzed using One-Way ANOVA and the Tukey post-hoc test in each time point.

Row | Structure (SMILES) | abnormal involuntary movements (AIM), sum of Lo, Ax, Li and Ol scores per testing session, time course ([1]; FIG. 1, vs vehicle) | AUC (20-60 min) of total AIM (Lo+Ax+Li+Ol) ([1]; FIG. 2) | AUC (20-60 min) of locomotive limb (Li) AIM scores ([1]; FIG. 3) | AUC (20-60 min) of locomotive Axial (Ax) AIM scores ([1]; FIG. 4) | AUC (20-60 min) of Orolingual (OL) AIM scores ([1]; FIG. 5) | AUC (10-190 min) of total AIM (Lo+Ax+Li+Ol) (LID model rats) | effects on tardive dyskinesia, Parkinsonism and akathisia [2] | total move distance (locomotor activity) in open field test (naïve rats; after 20 to 60 minutes) | total velocity (locomotor activity) in open field test (naïve rats; after 20 to 60 minutes) | total velocity (locomotor activity) in open field test (naïve rats; after 10 minutes, vs vehicle) | locomotor activity (moving distance and velocity) in open field test (naïve rats; after 20 mins) | locomotor activity (moving distance and velocity) in open field test (naïve rats; initially (after 10 min)) | total move distance (locomotor activity) in open field test (naïve rats; initially, vs vehicle)
1 | O=C1CC2(CCCC2)CC(=O)N1CCCCN1CCN(c2ncccn2)CC1 [buspirone, 8-[4-(4-pyrimidin-2-ylpiperazin-1-yl)butyl]-8-azaspiro[4.5]decane-7,9-dione] | partially reduced | partially reduced | did not have an effect | partially reduced | significantly reduced | small effect | has effects | – | – | – | – | – | –
2 | CCOC(=O)Nc1ccc(NCc2ccc(F)cc2)cc1N [retigabine, N-(2-amino-4-(4-fluorobenzylamino)-phenylcarbamic acid) ethyl ester] | – | – | – | – | – | – | – | no significant differences | no significant differences | significantly inhibit | no significant difference | significantly inhibit | significantly inhibit
